Test system: P493-6 (myc "on") cells
Assay: Cell Proliferation Assay
Assay type: cell-based
Conditions: P493-6, 72 h, read-out: Cell prolif P493 72 h IC50, P493-6 cells, 72 h
Procedure, shortened: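 P493-6 cells with myc on, 10,000 per well in RPMI/10% FBS, exposed to serially diluted compound (0.5% DMSO final) for 72 h at 37 °C, 5% CO2. Antiproliferative effect read by Cell Titer Glo luminescence or Viacount FACS viability count.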

| SMILES | IC50 [nM] |
| --- | --- |
| CNCc1cccc(CC(=O)Nc2nnc(CCCCc3ccc(NC(=O)Cc4ccccc4)nn3)s2)c1 [Compound 408] | 190 |
| CC1(C)CCN(C(=O)Cc2cccc(CC(=O)Nc3nnc(CCCCc4ccc(NC(=O)Cc5ccccc5)nn4)s3)c2)C1 [Compound 481] | 12 |
| CC(=O)N(C)Cc1cccc(CC(=O)Nc2nnc(CCCCc3ccc(NC(=O)Cc4ccccc4)nn3)s2)c1 [Compound 445] | 22 |
| O=C(Cc1ccccc1)Nc1nnc(CCCCc2nnc(NC(=O)Cc3ccccc3)o2)o1 [Compound 637] | > 50000 |
| CC(C)NC(=O)Nc1nnc(CCCCc2nnc(NC(=O)Cc3ccccc3)s2)s1 [Compound 438] | 880 |
| CCOC(=O)NCc1cccc(CC(=O)Nc2ccc(CCCCc3nnc(NC(=O)Cc4cccc(CNC(=O)OCC)c4)s3)nn2)c1 [Compound 572] | 4 |
| CC(C(=O)Nc1ccc(CCCCc2nnc(NC(=O)C(O)c3cccc(Cl)c3)s2)nn1)c1ccccc1 (centres unmarked) [Compound 468] | 270 |
| O=C(Cc1ccccc1)Nc1ccc(CCCCc2nnc(NC(=O)NC3CCCC3)s2)nn1 [Compound 403] | 120 |
| Cc1cccc(CNC(=O)Nc2nnc(CCCCc3nnc(NC(=O)Cc4ccccc4)s3)s2)c1 [Compound 417] | 320 |

Same assay, conditions: P493-6, 72 h, read-out: Cell prolif P493 72 h IC50, P493 cells, 72 h

| SMILES | IC50 [nM] |
| --- | --- |
| O=C(Cc1c(F)cccc1F)Nc1nnc(CCCCc2nnc(NC(=O)Cc3c(F)cccc3F)s2)s1 [Compound 293] | 40 |
| O=C(CCN1CCOCC1)OC(C(=O)Nc1nnc(CCCCc2nnc(NC(=O)C(O)c3cccc(Cl)c3)s2)s1)c1cccc(Cl)c1 (centres unmarked) [Compound 358] | 110 |
| O=C(Cc1ccccc1F)Nc1nnc(CCSCCc2nnc(NC(=O)Cc3ccccc3F)s2)s1 [Compound 294] | 1100 |
| N#Cc1cccc(CC(=O)Nc2nnc(CCSCCc3nnc(NC(=O)Cc4cccc(C#N)c4)s3)s2)c1 [Compound 155] | 1900 |
| O=C(Cc1ccccc1)Nc1nnc(CCSCc2nnc(NC(=O)Cc3cccc(OCCN4CCOCC4)c3)s2)s1 [Compound 378] | 90 |
| O=C(Cc1ccccn1)Nc1nnc(CCSCCc2nnc(NC(=O)Cc3ccccn3)s2)s1 [Compound 308] | 1200 |
| CS(=O)(=O)c1cccc(CC(=O)Nc2nnc(CCSCCc3nnc(NC(=O)Cc4cccc(S(C)(=O)=O)c4)s3)s2)c1 [Compound 158] | 8100 |
| O=C(CCN1CCOCC1)OCC(C(=O)Nc1nnc(CCCCc2nnc(NC(=O)C(CO)c3ccccc3)s2)s1)c1ccccc1 (centres unmarked) [Compound 228, 3-((5-{4-[5-(3-hydroxy-2-phenylpropanamido)-1,3,4-thiadiazol-2-yl]butyl}-1,3,4-thiadiazol-2-yl)amino)-3-oxo-2-phenylpropyl 3-morpholinopropanoate] | 130 |
| CC(CO)(CO)C(=O)Nc1nnc(CCCCc2nnc(NC(=O)Cc3cccc(F)c3)s2)s1 [Compound 152, N,N′-(5-(4-(5-(2-(3-fluorophenyl)acetamido)-1,3,4-thiadiazol-2-yl)butyl)-1,3,4-thiadiazol-2-yl)-3-hydroxy-2-(hydroxymethyl)-2-methylpropanamide] | 1100 |
| Cc1nccn1Cc1cccc(CC(=O)Nc2nnc(CCCCc3nnc(NC(=O)Cc4cccc(Cn5ccnc5C)c4)s3)s2)c1 [Compound 296] | 170 |
| O=C(Nc1nnc(CCSCCc2nnc(NC(=O)[C@H](O)c3ccccc3)s2)s1)[C@H](O)c1ccccc1 [Compound 81] | 7600 |
| COCOCCOC(C(=O)Nc1nnc(CCCCc2nnc(NC(=O)C(OCCOCOC)c3ccccc3)s2)s1)c1ccccc1 (centres unmarked) [Compound 251] | 2800 |
| O=C(Nc1nnc(CCCCc2nnc(NC(=O)C3(c4cccs4)CCOCC3)s2)s1)C1(c2cccs2)CCOCC1 [Compound 167] | 34000 |
| CC(=O)O[C@H](C(=O)Nc1nnc(CCSCCc2nnc(NC(=O)[C@@H](OC(C)=O)c3ccccc3)s2)s1)c1ccccc1 [Compound 71] | 6900 |
| COc1cccc(CC(=O)Nc2nnc(CCSCCc3nnc(NC(=O)Cc4cccc(OC)c4OC)s3)s2)c1OC [Compound 259] | 570 |
| O=C(Nc1nnc(CCCCc2nnc(NC(=O)C(OCCO)c3ccccc3)s2)s1)C(OCCO)c1ccccc1 (centres unmarked) [Compound 252] | 6300 |
| COC(C(=O)Nc1nnc(CCCCc2nnc(NC(=O)C(OC)c3ccccc3)s2)s1)c1ccccc1 (centres unmarked) [Compound 65] | 520 |

| SMILES | IC50 [nM] |
| --- | --- |
| O=C(Cc1cccnc1)Nc1nnc(CCCCc2nnc(NC(=O)Cc3cccnc3)s2)s1 [Compound 311] | 22000 |
| COCCOC(C(=O)Nc1nnc(CCCCc2nnc(NC(=O)C(OCCOC)c3ccccc3)s2)s1)c1ccccc1 (centres unmarked) [Compound 203] | 1700 |
| O=C(Cc1c(F)cccc1F)Nc1nnc(CCSCCc2nnc(NC(=O)Cc3c(F)cccc3F)s2)s1 [Compound 298] | 5100 |
| O=C(Cc1ccccc1)Nc1ccc(CCCCc2nnc(NC(=O)Cc3cccc(Cl)c3)s2)nn1 [Compound 335] | 50 |
| CC(=O)OCC(=O)Nc1nnc(CCSCCc2nnc(NC(=O)COC(C)=O)s2)s1 [Compound 5] | > 50000 |
| CC(C)[C@H](N)C(=O)Nc1nnc(CCSCCc2nnc(NC(=O)Cc3ccccc3)s2)s1 [Compound 32] | 11000 |
| N[C@H](C(=O)Nc1nnc(CCCCc2nnc(NC(=O)[C@@H](N)c3ccccc3)s2)s1)c1ccccc1 [Compound 187] | 21000 |
| CC(CO)(CO)C(=O)Nc1nnc(CCCCc2nnc(NC(=O)C(C)(CO)CO)s2)s1 [Compound 151] | > 50000 |
| O=C(Cc1ccccc1)Nc1nnc(CCSCc2nnc(NC(=O)Cc3cccc(Cl)c3)s2)s1 [Compound 372] | 150 |
| O=C(Cc1ccccc1)Nc1nnc(CCCCCc2nnc(NC(=O)Cc3ccccc3)s2)s1 [Compound 11] | 890 |
| Nc1ccc(CC(=O)Nc2nnc(CCSCCc3nnc(NC(=O)Cc4ccc(N)cc4)s3)s2)cc1 [Compound 195] | 1300 |
| O=C(Cc1ccccc1)Nc1nnc(CCCCc2nnc(NC(=O)OCc3ccccc3)s2)s1 [Compound 374] | 470 |
| O=C(Cc1ccccc1)Nc1nnc(CCCCc2nnc(NC(=O)Cc3cccnc3)s2)s1 [Compound 309] | 180 |
| CC(C)(C)OC(=O)N1CCC(CC(=O)Nc2nnc(CCCCc3nnc(NC(=O)CC4CCN(C(=O)OC(C)(C)C)CC4)s3)s2)CC1 [Compound 114] | 560 |
| O=C(Cc1ccsc1)Nc1nnc(CCSCCc2nnc(NC(=O)Cc3ccsc3)s2)s1 [Compound 84] | 890 |
| O=C(Nc1nnc(CCSCCc2nnc(NC(=O)C3COc4ccccc4O3)s2)s1)C1COc2ccccc2O1 (centres unmarked) [Compound 41] | 33000 |
| O=C(Nc1nnc(CCCc2nnc(NC(=O)C(O)c3ccccc3)s2)s1)C(O)c1ccccc1 (centres unmarked) [Compound 172] | 3700 |

Biological target: T1, recombinant form of Glutaminase 1 (GAC) (Homo sapiens, UniProt O94925)
T1 sequence (O94925 137-598 isoform O94925-3 limits assumed): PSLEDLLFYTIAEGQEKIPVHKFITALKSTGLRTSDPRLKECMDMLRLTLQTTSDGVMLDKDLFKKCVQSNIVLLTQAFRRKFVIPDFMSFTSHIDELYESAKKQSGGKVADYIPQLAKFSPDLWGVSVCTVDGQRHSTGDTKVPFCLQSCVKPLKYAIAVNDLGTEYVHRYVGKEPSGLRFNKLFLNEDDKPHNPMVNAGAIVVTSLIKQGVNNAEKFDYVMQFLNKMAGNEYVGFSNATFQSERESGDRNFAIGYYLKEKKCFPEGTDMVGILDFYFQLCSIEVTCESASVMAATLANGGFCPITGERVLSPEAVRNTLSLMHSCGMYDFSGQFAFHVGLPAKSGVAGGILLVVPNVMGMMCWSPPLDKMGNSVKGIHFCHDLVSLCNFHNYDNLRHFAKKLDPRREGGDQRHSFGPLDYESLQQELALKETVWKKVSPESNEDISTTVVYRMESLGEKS
Assay: Recombinant Enzyme Assay - Time Dependence (60 min preincubation)
Assay type: biochemical
Conditions: not given
Method: The enzyme/compound mix was sealed with sealing foil (USA Scientific) and allowed to incubate, with mild agitation, for 60 minutes at 20° C. Enzymatic reaction was started with the addition of 50 μL of substrate solution (50 mM Tris-HCl pH 8.0, 0.2 mM EDTA, 150 mM K2HPO4, 0.1 mg/ml BSA, 1 mM DTT, 20 mM L-glutamine, 2 mM NAD^+, and 10 ppm antifoam) and read in a Molecular Devices M5 plate reader at 20° C. The plate reader was configured to read absorbance (=340 nm) in kinetic mode for 15 minutes. Data was recorded as milli-absorbance units per minute and slopes were compared to a control compound and a DMSO-only control on the same plate. Compounds with slopes less than the DMSO control were considered inhibitors and plate variability was assessed using the control compound.

| SMILES | IC50 [nM] |
| --- | --- |
| O=C(Cc1cccc(Br)c1)Nc1nnc(CCCCc2nnc(NC(=O)Cc3cccc(Br)c3)s2)s1 [Compound 284] | 50 |

Same assay, conditions: read-out: GAC Delta N2 IC50 60 min preinc

| SMILES | IC50 [nM] |
| --- | --- |
| CNCc1cccc(CC(=O)Nc2nnc(CCCCc3ccc(NC(=O)Cc4ccccc4)nn3)s2)c1 [Compound 408] | 18 |
| CC1(C)CCN(C(=O)Cc2cccc(CC(=O)Nc3nnc(CCCCc4ccc(NC(=O)Cc5ccccc5)nn4)s3)c2)C1 [Compound 481] | 4 |
| CC(=O)N(C)Cc1cccc(CC(=O)Nc2nnc(CCCCc3ccc(NC(=O)Cc4ccccc4)nn3)s2)c1 [Compound 445] | 4 |
| O=C(Cc1cccc(OC(F)(F)F)c1)Nc1ccc(CCCCc2nnc(NC(=O)Cc3cccc(OC(F)F)c3)s2)nn1 [Compound 668] | 9 |
| CC(C)(C)OC(=O)NCc1cccc(CC(=O)Nc2nnc(CCCCc3ccc(NC(=O)Cc4cccc(OC(F)(F)F)c4)nn3)s2)c1 [Compound 586] | 13 |
| O=C(Cc1cccc(OC(F)(F)F)c1)Nc1ccc(CCCCc2nnc(NC(=O)Cc3ccccc3F)s2)nn1 [Compound 673] | 6 |
| CSc1cccc(CC(=O)Nc2nnc(CCCCc3ccc(NC(=O)Cc4cccc(OC(F)(F)F)c4)nn3)s2)c1 [Compound 674] | 8 |
| O=C(Cc1cccc(OC(F)(F)F)c1)Nc1ccc(CCCCc2nnc(NC(=O)Cc3cc(F)ccc3F)s2)nn1 [Compound 659] | 10 |
| CC(C(=O)Nc1nnc(CCCCc2ccc(NC(=O)Cc3cccc(OC(F)(F)F)c3)nn2)s1)c1ccccc1 (centres unmarked) [Compound 636] | 8 |
| O=C(Cc1cccc(OC(F)(F)F)c1)Nc1ccc(CCCCc2nnc(NC(=O)Cc3cccc(OCC(F)(F)F)c3)s2)nn1 [Compound 669] | 21 |
| O=C(Cc1cccc(OC(F)(F)F)c1)Nc1ccc(CCCCc2nnc(NC(=O)Cc3ccncc3)s2)nn1 [Compound 672] | 10 |
| O=C(Cc1cccc(OC(F)(F)F)c1)Nc1ccc(CCCCc2nnc(NC(=O)Cc3cc(F)cc(F)c3)s2)nn1 [Compound 662] | 7 |
| COc1cccc(CC(=O)Nc2nnc(CCCCc3ccc(NC(=O)Cc4cccc(OC(F)(F)F)c4)nn3)s2)c1 [Compound 658] | 5 |
| O=C(Cc1ccccc1OC(F)(F)F)Nc1ccc(CCCCc2nnc(NC(=O)Cc3ccccc3)s2)nn1 [Compound 614] | 8 |
| O=C(Cc1ccc(OC(F)(F)F)cc1)Nc1ccc(CCCCc2nnc(NC(=O)Cc3ccccc3)s2)nn1 [Compound 615] | 9 |
